Converted amounts (≈) assume the structure as drawn. Where two headings read alike, the source gives them in different places.
What was measured:
[1] = test system: A. fumigatus isolates (ARAF and azole susceptible); assay: Broth microdilution after EUCAST; assay type: cell-based; conditions: Aspergillus fumigatus; range, 16 ARAF and 4 azole susceptible isolates
Description: (§1) Materials & Methods: Olorofim activity has been analyzed at different stages (prior adhesion, 4 h, 12 h, 24 h and 48 h after inoculation) of biofilm formation of clinical ARAF strains (n = 16) as well as azole susceptible A. fumigatus isolates (n = 4) by using an XTT assay. Olorofim was applied in concentrations of a total, a half, a quarter and an eighth of the previously determined minimum inhibitory concentrations (MICs) by broth microdilution method after EUCAST.

A. fumigatus biofilm = assay: Antibiofilm activity, XTT assay; assay type: cell-based, Aspergillus fumigatus
Description: as §1

[2] = test system: Candida isolates from animals; assay: CLSI M44-A2 disk diffusion; assay type: cell-based, Candida spp.; conditions: 10 µg discs; all 10 isolates
Description: Methods: Swab samples were plated on Sabouraud dextrose agar (SDA) with the addition of chloramphenicol. M. pachydermatis strains were identified by conventional laboratory methods and their ability to grow on SDA without lipid supplementation. The identification of Candida isolates was based on their phenotypic characterization and molecular methods using the universal ITS-1 and ITS-4 primers for amplification of the internal transcribed spacer 1 (ITS1), ITS2 regions and the 5.8S ribosomal DNA region followed by sequence-based identification. Susceptibility of Candida isolates was determined as described by the CLSI M44-A2 method using MCZ, CTZ and ITZ discs (10 µg, Neo-Sensitabs, Rosco, Denmark). Because the standard procedure for Candida susceptibility testing cannot be applied to M. pachydermatis, recommended modified protocol was used. The results were interpreted according to manufacturer’s guidelines.

A. flavus = assay: EUCAST and CLSI susceptibility, multicenter; assay type: cell-based; conditions: Aspergillus flavus
Description: (§2) Methods: We performed a multicenter study to determine the antifugal susceptibility to AmB from AmBisome (provided by Gilead) using both CLSI and EUCAST protocols. We tested this activity against the most relevant clinical fungal species.Representative isolates from different geographical regions were included in the study. Other antifungals were evaluated (fluconazole, itraconazole, voriconazole, posaconazole, caspofungin, micafungin and anidulafungin).

A. nidulans = assay: EUCAST and CLSI susceptibility, multicenter; assay type: cell-based; conditions: Aspergillus nidulans
Description: as §2

A. niger = assay: EUCAST and CLSI susceptibility, multicenter; assay type: cell-based; conditions: Aspergillus niger
Description: as §2

A. terreus = assay: EUCAST and CLSI susceptibility, multicenter; assay type: cell-based; conditions: Aspergillus terreus
Description: as §2

Aspergillus fumigatus = assay: EUCAST and CLSI susceptibility, multicenter; assay type: cell-based
Description: as §2

C. tropicalis = assay: EUCAST and CLSI susceptibility, multicenter; assay type: cell-based; conditions: Candida tropicalis, seven laboratories
Description: as §2

Candida albicans = assay: EUCAST and CLSI susceptibility, multicenter; assay type: cell-based; conditions: seven laboratories
Description: as §2

[3] = test system: Lomentospora prolificans and Cunninghamella bertholletiae; assay: EUCAST and CLSI susceptibility, multicenter; assay type: cell-based
Description: as §2

[4] = test system: other filamentous fungi, including Talaromyces marneffei; assay: EUCAST and CLSI susceptibility, multicenter; assay type: cell-based; conditions: around, read-out: GM MIC, both methods
Description: as §2

C. parapsilosis = assay: EUCAST and CLSI susceptibility, multicenter; assay type: cell-based, Candida parapsilosis; conditions: Lodderomyces parapsilosis, seven laboratories
Description: as §2

C. glabrata = assay: EUCAST and CLSI susceptibility, multicenter; assay type: cell-based, Candida glabrata; conditions: Nakaseomyces glabratus, seven laboratories
Description: as §2

C. auris = assay: EUCAST and CLSI susceptibility, multicenter; assay type: cell-based, Candida auris; conditions: Candidozyma auris, seven laboratories
Description: as §2

CDR1 = assay: Rhodamine 6G (R6G) efflux
[5] = ECMM multinational study, risk factors for CAPA; assay type: in vivo, human; conditions: critically ill COVID-19 patients in ICU, 592 patients
Text: Methods: The European Confederation of Medical Mycology (ECMM) conducted a multinational study including 20 centers from nine different countries to assess epidemiology, diagnosis, risk factors, treatment and outcome of CAPA. CAPA was defined according to ECMM/ISHAM consensus definitions.

[6] = test system: clinical dermatophyte isolates; assay: Inhibition of dermatophyte biofilm formation; assay type: cell-based
Description: Materials and Methods: The study population consisted of 50 dermatophyte isolates that were collected from 2019 to 2020 from patients referred to the two mycology laboratory of Shiraz, Iran. The isolates were identified by ITS gene region sequencing. The suspension (equivalent to 0.5 McFarland) of the isolates was used to evaluate the ability of the isolates to form biofilms and also the effect of itraconazole, terbinafine and griseofulvin at concentrations of 2–32 μg/mL on inhibiting biofilm formation. Two optical microscope and a scanning electron microscope were used to study the microscopic structure of biofilms formed on the surface of 96-well plate wells.

[7] = test system: environmental yeasts from a lagoon; assay: organism not typed; assay type: cell-based
[8] = test system: Exophiala phaeomuriformis; assay: MIC, CLSI M27-A3; assay type: cell-based; conditions: read-out: MIC values
Description: Materials & Methods: The aviation kerosone samples came from an aviation company in Porto Alegre, state of Rio Grande do Sul, Brazil. The fungi isolation was carried out using the modified ASTM D6974-09 Standard. In this procedure, 500 mL kerosene samples were filtered, in triplicate, under aseptic conditions, under vacuum, using a 0.22 μm membrane (Millipore). After filtering, the membranes were deposited in potato dextrose agar culture medium. The plates were incubated in an oven at 30 °C for seven days. After this period, the colonies were isolated in new culture media for purification of the isolates. Molecular identification was performed through the sequencing of ITS DNA regions. The profile of sensitivity to clinical antifungals was assessed following protocols M27-A3 of the Clinical and Laboratory Standards Institute (CLSI).

dermatophyte strains = assay: Terbinafine modified breakpoint method; assay type: cell-based
Description: In vitro sensitivity testing against terbinafine was carried out using a modified breakpoint method according to Yamada et al., (2017) and Ebert et al., (2020).

[9] = test system: dermatophyte standard strains and clinical isolates; assay: Broth microdilution MIC; assay type: cell-based, Trichophyton and Microsporum spp.; conditions: all tested strains
Description: Materials & Methods: The minimum inhibitory concentration (MIC) of honokiol was assessed by broth microdilution method against standard strains (Trichophyton rubrum ATCC 28188, Trichophyton mentagrophytes ATCC 9533), and clinical isolates (T. rubrum, T. ajelloi, Microsporum canis and M. gypseum). Evaluation of honokiol effect on ergosterol biosynthesis was assessed by high performance liquid chromatography. Checkerboard microtiter method was used to identify synergistic combinations of honokiol with terbinafine against Trichophyton rubrum ATCC 28188. The combinatorial effect was evaluated by calculating the fractional inhibitory concentration index (FICI).

[10] = test system: clinical Trichophyton spp. isolates; assay: Checkerboard microdilution based on EUCAST; assay type: cell-based; conditions: for MIC: Trichophyton, read-out: geometric mean MIC, drug alone; for FICI of isolates exhibiting synergy / isolates with synergistic interactions: terbinafine + itraconazole
Description: Materials & Methods: The combination has been tested against 9 terbinafine-susceptible and 7 terbinafine-resistant clinical Trichophyton spp. isolates from India. In vitro interactions were evaluated by a microdilution checkerboard technique based on the EUCAST reference method for antifungal susceptibility testing. The mode of interaction between terbinafine and itraconazole was determined by the fractional inhibitory concentration index (FICI). The FICI was interpreted as FICI ≤ 0.5 = synergy, FICI > 0.5–4 = no interaction, and FICI > 4.0 = antagonism.

Trichophyton spp. = assay: Agar-based screening method; assay type: cell-based; conditions: 0.5 McF, 5 days, 30 °C
Description: Inter-experimental variation was evaluated by testing 10 isolates on three different days. Single-centre validation: After determining the optimal conditions for the agar screening method, 112 molecularly identified Trichophyton spp. clinical isolates were tested.

T. mentagrophytes [11] = assay: EUCAST E.DEF 11.0 MIC; assay type: cell-based; conditions: Trichophyton mentagrophytes
T. rubrum = conditions: eight susceptible strains; ref Arendrup et al., 2020; cited from earlier work
T. indotineae = conditions: eleven susceptible strains; ref Arendrup et al., 2020; cited from earlier work
[12] = test system: T. rubrum and T. interdigitale; conditions: cited from earlier work
[13] = test system: T. mentagrophytes isolates; conditions: cited from earlier work
[14] = test system: T. rubrum and T. interdigitale isolates; assay: CLSI M38A2 broth microdilution
T. mentagrophytes [15] = assay: EUCAST E.DEF11.0 susceptibility
Description: Materials/methods: Samples from patients with clinically suspected dermatophytosis attending the outpatient Dermatology-Venereology Department of “Attikon” hospital during 2010–2019 were collected. Specimens were processed for direct microscopic examination (Blankophor in 10% KOH) and were inoculated on two plates each of Sabouraud’s dextrose agar supplemented with gentamicin + chloramphenicol and the other containing phenol red + cyclohexamide (incubation at 30 °C up to 4 weeks). Recovered isolates were identified to the genus and species level by standard phenotypic methods based on their colonial/microscopic morphology and biochemical properties (hydrolysis of urea) and were stored in 10% glycerol stocks at −70 °C.

[16] = 7 terbinafine-resistant isolates
[17] = 9 terbinafine-susceptible isolates

For `Cc1cc(-c2ccccc2)c(C(=O)C(=O)Nc2ccc(N3CCN(c4ncc(F)cn4)CC3)cc2)n1C` [olorofim], the MIC [1] was 0.008 to 0.03 mg/L (≈ 0.016 to 0.0602 µM), the biofilm reduction (A. fumigatus biofilm; added prior to adhesion (t0) and right after adhesion (t4), compared to non-treated control) was “up to 96%” and the “effect on mature biofilm” value (A. fumigatus biofilm; t24 & t48) was “did not show an effect”.
With `Clc1ccccc1C(c1ccccc1)(c1ccccc1)n1ccnc1` [CTZ, clotrimazole] the susceptibility category [2] was “susceptible”.
`C[C@@H]1[C@H](O)[C@@H](C)/C=C/C=C/C=C/C=C/C=C/C=C/C=C/[C@H](O[C@@H]2O[C@H](C)[C@@H](O)[C@H](N)[C@@H]2O)C[C@@H]2O[C@](O)(C[C@@H](O)C[C@@H](O)[C@H](O)CC[C@@H](O)C[C@@H](O)CC(=O)O[C@H]1C)C[C@H](O)[C@H]2C(=O)O` [AmB from AmBisome, Amphotericin B] showed an MIC (A. flavus; read-out: GM MIC, CLSI) of 1.1 mg/L (≈ 1.19 µM), an MIC (A. flavus; read-out: GM MIC, EUCAST) of 1.7 mg/L (≈ 1.84 µM) and an MIC (A. nidulans; read-out: GM MIC, CLSI) of 0.9 mg/L (≈ 0.974 µM). For the same molecule, the MIC (A. nidulans; read-out: GM MIC, EUCAST) was 1.7 mg/L (≈ 1.84 µM), the MIC (A. niger; read-out: GM MIC, CLSI) was 0.36 mg/L (≈ 0.39 µM) and the MIC (A. niger; read-out: GM MIC, EUCAST) was 0.22 mg/L (≈ 0.238 µM). The MIC (A. terreus; read-out: GM MIC, CLSI) was 1.4 mg/L (≈ 1.52 µM), the MIC (A. terreus; read-out: GM MIC, EUCAST) was 2 mg/L (≈ 2.16 µM) and the MIC (Aspergillus fumigatus; read-out: GM MIC, CLSI) was 0.64 mg/L (≈ 0.693 µM). The MIC (Aspergillus fumigatus; read-out: GM MIC, EUCAST) was 0.65 mg/L (≈ 0.703 µM), the MIC (C. tropicalis; read-out: GM MIC, CLSI) was 0.31 mg/L (≈ 0.335 µM) and the MIC (C. tropicalis; read-out: GM MIC, EUCAST) was 0.36 mg/L (≈ 0.39 µM). The MIC (Candida albicans; read-out: GM MIC, CLSI) was 0.21 mg/L (≈ 0.227 µM), the MIC (Candida albicans; read-out: GM MIC, EUCAST) was 0.23 mg/L (≈ 0.249 µM) and the “activity, in words” value [3] was “lowest activity”. The MIC [4] was 0.2 to 0.5 mg/L (≈ 0.216 to 0.541 µM), the MIC (C. parapsilosis; read-out: GM MIC, CLSI) was 0.38 mg/L (≈ 0.411 µM) and the MIC (C. parapsilosis; read-out: GM MIC, EUCAST) was 0.36 mg/L (≈ 0.39 µM). It also gave an MIC (C. glabrata; read-out: GM MIC, CLSI) of 0.33 mg/L (≈ 0.357 µM), an MIC (C. glabrata; read-out: GM MIC, EUCAST) of 0.34 mg/L (≈ 0.368 µM) and an MIC (C. auris; read-out: GM MIC, CLSI) of 0.31 mg/L (≈ 0.335 µM). The MIC (C. auris; read-out: GM MIC, EUCAST) was 0.46 mg/L (≈ 0.498 µM).
In the case of Milbemycin oxim A3, the R6G efflux phenotype (CDR1) is reported as “mimicked efflux phenotypes of cdr1∆ mutants”.
For “tocilizumab: tocilizumab received by COVID-19 ICU patients”, the “hazard ratio for CAPA” value [5] was 2.45.
With `CN(C/C=C/C#CC(C)(C)C)Cc1cccc2ccccc12` [terbinafine] the IC50 ([6]; inhibition of biofilm formation, read-out: mean concentrations of IC50) was 2.42 mg/L (≈ 8.3 µM), the “samples with IC50 in concentration <2” value ([6]; tested at 2–32 μg/mL) was 70% and the “isolates classified as resistant-like” value [7] was 39. For the same molecule, the MIC ([7]; read-out: MIC of resistant-like isolates) was 4 to 256 mg/L, the MIC [8] was 0.0156 mg/L (≈ 0.0535 µM) and the in vitro resistance (dermatophyte strains; T. mentagrophytes ITS type VIII (T. indotineae), MIC ≥0.2 µg/mL counts as resistant) was “In vitro resistance”. For the same molecule, the MIC (dermatophyte strains; few strains, conspicuous but not resistant) was 0.1 mg/L (≈ 0.343 µM), the MIC [9] was 0.03 to 0.06 mg/L and the “MIC range, drug alone” value [10, 16] was 2 to 64 mg/L. For the same molecule, the “MIC range, drug alone” value [10, 17] was 0.03125 to 0.5 mg/L, the MIC [10, 16] was 11.9 mg/L and the MIC [10, 17] was 0.12 mg/L. For the same molecule, the “FICI of isolates exhibiting synergy” value ([10]; resistant isolates) was 0.032 to 0.3125, the “isolates with synergistic interactions” value ([10]; resistant isolates) was 4/7 and the “FICI of isolates exhibiting synergy” value ([10]; susceptible isolates) was 0.3125 to 0.5. The “isolates with synergistic interactions” value ([10]; susceptible isolates) was 4/9, the “optimal agar concentration preventing growth of WT isolates” value (Trichophyton spp.; for high-level resistant isolates) was 0.125 mg/L and the “optimal agar concentration preventing growth of WT isolates” value (Trichophyton spp.; for low-level resistant isolates) was 0.01 mg/L. The MIC (T. mentagrophytes [11]) was 0.25 to 8 mg/L (≈ 0.858 to 27.5 µM), the MIC (T. rubrum) was “under 0.25 µg/µL” and the MIC (T. indotineae) was “under 0.25 µg/µL”. The terbinafine resistance [12] was 1%, the resistant isolates [13] was 30–70% and the “isolates less susceptible by microdilution” value [14] was 2.44%. For the same molecule, the MIC ([14]; Trichophyton interdigitale) was 1 to 2 mg/L (≈ 3.43 to 6.86 µM), the “strains with elevated MICs” value (T. mentagrophytes [15]; 9/24) was 37.5% and the MIC (T. mentagrophytes [15]; Trichophyton mentagrophytes, read-out: MIC of strains with elevated MICs) was 0.25 to 8 mg/L.
